{"source": "paper PMC5929447", "about": "(Oncotarget, 2018)", "key": {"BCL-XL": {"molecular_target": "BCL-XL (Homo sapiens, UniProt Q07817)", "sequence (Q07817 whole entry)": "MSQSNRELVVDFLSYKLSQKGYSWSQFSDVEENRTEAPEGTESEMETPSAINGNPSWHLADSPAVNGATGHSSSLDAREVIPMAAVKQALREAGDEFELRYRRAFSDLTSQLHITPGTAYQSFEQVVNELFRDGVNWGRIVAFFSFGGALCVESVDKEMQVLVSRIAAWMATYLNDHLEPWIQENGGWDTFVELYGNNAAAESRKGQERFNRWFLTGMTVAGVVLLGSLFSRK", "assay": "Fluorescence polarization (FP) with Fluorescein-PUMA, BCL-XL", "format": "binding", "conditions": "Fluorescein-PUMA as binder; read-out: FP_BCL-XL_KI", "description": "(§3) Final concentrations of MCL-1, BFL-1, BCL-2 and BCL-XL proteins were 10, 10, 10 and 20 nM respectively. The assay plates were incubated for 2 hours at room temperature and the FP was measured on a Synergy 2 reader (Ex. 528 nm, Em. 640 nm, Cut-off 510 nm). The binding of increasing doses of compound was expressed as a percentage reduction in mP compared to the window established between ‘DMSO only’ and ‘total inhibition’ control (30 μM PUMA). […] The KI was subsequently calculated as previously described [42]."}, "MCL-1": {"molecular_target": "MCL-1 (Homo sapiens, UniProt Q07820)", "sequence (Q07820 whole entry)": "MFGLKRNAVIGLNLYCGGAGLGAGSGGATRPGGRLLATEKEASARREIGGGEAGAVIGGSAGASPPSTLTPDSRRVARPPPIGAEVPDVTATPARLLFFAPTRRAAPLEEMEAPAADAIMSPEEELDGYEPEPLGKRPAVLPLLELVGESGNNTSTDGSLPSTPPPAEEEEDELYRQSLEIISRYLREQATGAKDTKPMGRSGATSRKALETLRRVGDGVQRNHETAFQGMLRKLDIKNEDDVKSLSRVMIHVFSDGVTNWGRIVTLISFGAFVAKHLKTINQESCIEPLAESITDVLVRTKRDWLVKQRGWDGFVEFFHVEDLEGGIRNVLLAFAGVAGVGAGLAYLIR", "assay": "Fluorescence polarization (FP) with Fluorescein-PUMA, MCL-1", "format": "binding"}, "[1]": {"tested_on": "BAX-deficient RS4;11 cells", "assay": "Viability of RS4;11 cells transduced with shRNA BAX", "format": "cell-based", "conditions": "72 h"}, "BCL-2/BAX complex": {"molecular_target": "BCL-2/BAX complex (Homo sapiens, UniProt P10415)", "sequence (P10415 whole entry, one chain of several)": "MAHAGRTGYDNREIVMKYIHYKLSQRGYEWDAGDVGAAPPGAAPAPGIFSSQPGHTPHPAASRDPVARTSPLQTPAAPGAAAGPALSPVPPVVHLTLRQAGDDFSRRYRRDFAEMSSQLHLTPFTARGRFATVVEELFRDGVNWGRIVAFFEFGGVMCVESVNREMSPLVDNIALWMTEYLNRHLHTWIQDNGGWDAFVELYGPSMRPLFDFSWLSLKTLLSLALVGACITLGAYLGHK", "assay": "Co-immunoprecipitation in BCL-2-overexpressing HeLa cells", "format": "cell-based", "conditions": "2 h"}, "[2]": {"tested_on": "isolated platelets from healthy volunteers", "assay": "Apoptosis (annexin V) in isolated platelets", "format": "cell-based", "conditions": "Homo sapiens, Platelet; 4 healthy donors, 3 h; read-out: EC50 apoptosis (PS+) in isolated platelets", "method": "(§1) Peripheral blood samples from CLL patients were obtained with informed patient consent and local ethical committee approval (UHL-09723). […] Interphase fluorescence in situ hybridization (FISH) was performed for detection of 17p13 deletion. Mantle cell lymphoma (MCL) primary cells were obtained after informed consent from MCL patients treated at the department of clinical hematology from the University Hospital of Nantes, France. Peripheral MCL cells from blood or pleural effusion, were purified after Ficoll-Hypaque separation with immuno-magnetic anti-CD19 beads (Miltenyi, Paris, France). Primary cells were cultured in RPMI-1640 supplemented with 10% FCS and 2 mM glutamine. Human platelets were isolated from citrate blood donated by healthy volunteers. Washed platelets were cultured in Hepes-buffered saline (HBS, 10 mM Hepes, 150 mM NaCl, 5 mM KCl, 1 mM MgSO4, pH 7.4).\nEC50 values were calculated using GraphPadPrism (non-linear fit, sigmoidal dose response, variable slope). […] Cell death was assessed in the CD19+ primary MCL cells by annexinV-FITC staining combined with an analysis of altered cellular morphology (lower FCS). Fluorescence was analyzed on FACSCalibur."}, "[3]": {"tested_on": "Diffuse Large B-Cell Lymphoma cell lines", "assay": "CellTiter-Glo viability, DLBCL cell line panel", "format": "cell-based", "conditions": "72 h, six out of eleven DLBCL cell lines tested", "method": "(§2) Cells were seeded into 96-well plates and treated at 8 points with 1:2 serial dilution of compounds. Cell viability was assessed and assayed for viability using CellTiter-Glo reagent (Promega) following the manufacturer's instructions. Plates were read using Tecan luminescence plate reader. Results were normalized to the viability of cells without compounds (control wells). The IC50 values were calculated using nonlinear regression algorithms in XCell software."}, "[4]": {"tested_on": "Burkitt lymphoma cell lines", "assay": "CellTiter-Glo viability, Burkitt lymphoma cell line panel", "format": "cell-based", "conditions": "72 h; all Burkitt lymphoma cell lines tested", "method": "as §2"}, "Toledo cells": {"tested_on": "Toledo cells", "assay": "CellTiter-Glo viability, Toledo", "format": "cell-based", "conditions": "Homo sapiens, 72 h", "method": "as §2"}, "[5]": {"tested_on": "primary Mantle Cell Lymphoma cells", "assay": "Apoptosis (annexin V flow cytometry) in primary MCL cells", "format": "cell-based", "conditions": "Homo sapiens, 24 h", "method": "as §1, with “7.4). […] EC50 values were calculated using GraphPadPrism (non-linear fit, sigmoidal dose response, variable slope). […] Cell death was assessed in the CD19+ primary MCL cells by annexinV-FITC staining combined with an analysis of altered cellular morphology (lower FCS). Fluorescence was analyzed on FACSCalibur.” for “7.4).”"}, "BCL-XL/BAX complex": {"molecular_target": "BCL-XL/BAX complex (Homo sapiens, UniProt Q07817)", "sequence (Q07817 whole entry, one chain of several)": "as the sequence (Q07817 whole entry) above", "assay": "Co-immunoprecipitation in BCL-XL-overexpressing HeLa cells", "conditions": "2 h", "description": "Effecten reagent (Qiagen), with 3xFlag-tagged BCL-XL\n24 h later, transfected Hela and RS4;11\nwere put under neomycin selection (800 µg/ml, Invitrogen) were then subjected to immunoprecipitation with anti-"}, "BFL-1": {"molecular_target": "T1, BFL-1 (Homo sapiens, UniProt Q16548)", "T1 sequence (Q16548 1-175)": "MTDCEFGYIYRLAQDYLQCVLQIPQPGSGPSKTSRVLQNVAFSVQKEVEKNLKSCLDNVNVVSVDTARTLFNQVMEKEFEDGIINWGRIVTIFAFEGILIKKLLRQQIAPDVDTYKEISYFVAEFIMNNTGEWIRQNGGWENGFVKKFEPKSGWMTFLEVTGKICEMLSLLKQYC", "assay": "Fluorescence polarization (FP) with Fluorescein-PUMA, BFL-1", "description": "as §3"}, "[6]": {"tested_on": "BCL-XL-dependent FL5.12 cells", "assay": "Apoptosis (annexin V/PI) in FL5.12 cells expressing BCL-XL upon IL-3 withdrawal", "conditions": "24 h upon IL-3 withdrawal"}}, "note": "“And” between values parts separate entries of the source, which are not always exact repeats. Identical values can stand only once. Like-named read-outs stand apart in the source and are kept apart here."}
{"compound": "O=C(c1cc(-c2cc3c(cc2C(=O)N2Cc4ccccc4C[C@H]2CN2CCOCC2)OCO3)n2c1CCCC2)N(c1ccccc1)c1ccc(O)cc1", "note": "[S55746]", "values": [{"measurement": "Ki", "setting": "BCL-XL", "value": 520, "unit": "nM"}, {"measurement": "binding to MCL-1", "setting": "MCL-1; FP", "value": "No significant binding"}, {"measurement": "FP_MCL-1, % of inhibition at the maximal tested concentration", "setting": "MCL-1; at 30E-06 M", "value": "4.3% and 4.5%"}, {"measurement": "reduction of sensitivity of BAX-deficient versus control RS4;11", "setting": "[1]", "value": "≈ 50 fold"}, {"measurement": "IC50", "setting": "[1]; Homo sapiens, RS4-11, shRNA BAX", "value": 2700, "unit": "nM"}, {"measurement": "effect on BCL-2/BAX complex in BCL-2-overexpressing HeLa cells", "setting": "BCL-2/BAX complex", "value": "affects BCL-2/BAX complex"}, {"measurement": "EC50", "setting": "[2]", "value": "> 3000", "unit": "nM"}, {"measurement": "IC50", "setting": "[3]", "value": "< 1000", "unit": "nM"}, {"measurement": "IC50", "setting": "[4]", "value": "> 10000", "unit": "nM"}, {"measurement": "IC50", "setting": "Toledo cells", "value": 401, "unit": "nM"}, {"measurement": "EC50", "setting": "[5]; 8 patients, 24 h of treatment, read-out: EC50 apoptosis in primary MCL cells, range over patients", "value": "2.5 to 110", "unit": "nM"}, {"measurement": "EC50", "setting": "[5]; read-out: EC50 S55746 primary MCL cells, patient MCL2, 24 h", "value": 15, "unit": "nM"}, {"measurement": "EC50", "setting": "[5]; read-out: EC50 S55746 primary MCL cells, patient MCL3, 24 h", "value": 12, "unit": "nM"}, {"measurement": "EC50", "setting": "[5]; read-out: EC50 S55746 primary MCL cells, patient MCL4, 24 h", "value": 12, "unit": "nM"}, {"measurement": "EC50", "setting": "[5]; read-out: EC50 S55746 primary MCL cells, patient MCL5, 24 h", "value": 5, "unit": "nM"}, {"measurement": "EC50", "setting": "[5]; read-out: EC50 S55746 primary MCL cells, patient MCL6, 24 h", "value": 4, "unit": "nM"}, {"measurement": "EC50", "setting": "[5]; read-out: EC50 S55746 primary MCL cells, patient MCL7, 24 h", "value": 3, "unit": "nM"}, {"measurement": "EC50", "setting": "[5]; read-out: EC50 S55746 primary MCL cells, patient MCL8, 24 h", "value": 2.5, "unit": "nM"}, {"measurement": "effect on BCL-XL/BAX complex in BCL-XL-overexpressing HeLa cells", "setting": "BCL-XL/BAX complex", "value": "without any significant effect on the BCL-XL/BAX complex"}, {"measurement": "binding to BFL-1", "setting": "BFL-1; FP", "value": "No significant binding"}, {"measurement": "FP_BFL-1, % of inhibition at the maximal tested concentration", "setting": "BFL-1; at 5E-06 M", "value": 7.4, "unit": "%@5E-06"}, {"measurement": "apoptosis induction (PS+ cells) in BCL-XL-dependent FL5.12 cells", "setting": "[6]", "value": "minor effect"}]}
